Test results: patent publication EP3046573B1, “AMYLIN ANALOGUES” (Zealand Pharma A/S, priority 2013, dated 2015)
Numbered stars: 1 amine (or outer) side, 2 acyl side, 3 side chain; on linkers, the order of the positions; unused ones are H or OH. Bridge positions count the residues as written; N and C are the ends. Square brackets hold non-standard residues; d marks the D form. Peptide text beside a SMILES is read from it. * marks the point of attachment. C20 diacid = O=C(O)CCCCCCCCCCCCCCCCCCC(=O)*; Arachidoyl = CCCCCCCCCCCCCCCCCCCC(=O)*; γGlu = O=C(O)[C@H](CCC(=O)[*:2])N[*:1]; NMeI = CC[C@H](C)[C@H](NC)C(=O)O; Sar = CNCC(=O)O

Assay: Solubility assessment (turbidity absorbance at 325 nm)
Assay type: physicochemical
Conditions: stock 2 mg/ml diluted 1:1, ambient temperature (typically 25°C), n=1; for Solubility, Acetate buffer pH 4: 100 mM acetate buffer pH 4.0; for Solubility, Acetate buffer pH 5: 100 mM acetate buffer pH 5.0; for Solubility, Histidine buffer pH 6: 100 mM histidine buffer pH 6.0; for Solubility, Histidine buffer pH 7: 100 mM histidine buffer pH 7.0; for Solubility, Phosphate buffer pH 6: 100 mM phosphate buffer pH 6.0; for Solubility, Phosphate buffer pH 7: 100 mM phosphate buffer pH 7.0; for Solubility, Phosphate buffer pH 7.5: 100 mM phosphate buffer pH7.5
Description: A stock solution of the test peptide (2 mg/ml; determined from the weighed amount of peptide) in demineralized water adjusted to pH 2.5 with HCI was prepared, and aliquots were diluted 1:1 in 100 mM acetate buffer (pH 4.0 and pH 5.0), 100 mM histidine buffer (pH 6.0 and pH 7.0) and 100 mM phosphate buffer (pH 6.0, pH 7.0 and pH7.5), respectively, and loaded in a standard flat-bottom, non-sterile 96-well UV Microplate. The absorbance of samples (single samples, n=1) at 280 and 325 nm was measured in an absorbance-based plate reader, which was preheated to ambient temperature (typically 25°C). The turbidity absorbance criterion for a peptide solubility of ≥ 1 mg/ml was an absorbance at 325 nm of ≤ 0.02 absorbance units (which is 5 to 6 times the standard deviation of 8 buffer samples in a plate). Solubility data for peptides of the invention, pramlintide, and for a comparison pramlintide derivative denoted NN96 (see Example 5 below for details) are shown in Table 1, below. Table 1. Solubility data for compounds of the invention.

CC[C@H](C)[C@@H](C(=O)N[C@@H](CC(C)C)C(=O)N[C@@H](CO)C(=O)N[C@@H](CO)C(=O)N[C@H](C(=O)N[C@@H](CC(N)=O)C(=O)N[C@H](C(=O)NCC(=O)N[C@@H](CO)C(=O)N[C@@H](CC(N)=O)C(=O)N[C@H](C(=O)N1CCC[C@H]1C(N)=O)[C@@H](C)O)C(C)C)[C@@H](C)O)N(C)C(=O)[C@H](C)NC(=O)CN(C)C(=O)[C@H](Cc1ccccc1)NC(=O)[C@H](CC(N)=O)NC(=O)[C@H](CC(N)=O)NC(=O)[C@H](CO)NC(=O)[C@H](CO)NC(=O)[C@H](Cc1c[nH]cn1)NC(=O)[C@H](Cc1c[nH]cn1)NC(=O)[C@@H](CC(C)C)NC(=O)[C@H](Cc1ccccc1)NC(=O)[C@H](CCC(=O)O)NC(=O)[C@H](C)NC(=O)[C@H](CC(C)C)NC(=O)[C@H](CCCNC(=N)N)NC(=O)[C@H](CCC(N)=O)NC(=O)[C@@H](NC(=O)[C@H](C)NC(=O)[C@@H]1CSSC[C@H](NC(=O)[C@H](CCCNC(=N)N)NC(=O)CC[C@H](NC(=O)CCCCCCCCCCCCCCCCCCC(=O)O)C(=O)O)C(=O)N[C@@H](CC(N)=O)C(=O)N[C@@H]([C@@H](C)O)C(=O)N[C@@H](C)C(=O)N[C@@H]([C@@H](C)O)C(=O)N1)[C@@H](C)O [Compound 10, [19CD]-isoGlu-RC()NTATC()ATQRLAEF-DLeu-HHSSNNF-Gly(Me)-A-Ile(Me)-LSSTNVGSNTP-NH2] ({C20 diacid-γGlu}-RCNTATCATQRLAEF[dL]HHSSNNF[Sar]A[NMeI]LSSTNVGSNTP-NH2; disulfide 2-7)
SS (SS indicates solubility ≥ 1mg/ml): Solubility, Acetate buffer pH 4 | Solubility, Acetate buffer pH 5 | Solubility, Histidine buffer pH 6 | Solubility, Histidine buffer pH 7 | Solubility, Phosphate buffer pH 6 | Solubility, Phosphate buffer pH 7 | Solubility, Phosphate buffer pH 7.5

CC[C@H](C)[C@@H](C(=O)N[C@@H](CC(C)C)C(=O)N[C@@H](CO)C(=O)N[C@@H](CO)C(=O)N[C@H](C(=O)N[C@@H](CC(N)=O)C(=O)N[C@H](C(=O)NCC(=O)N[C@@H](CO)C(=O)N[C@@H](CC(N)=O)C(=O)N[C@H](C(=O)N1CCC[C@H]1C(N)=O)[C@@H](C)O)C(C)C)[C@@H](C)O)N(C)C(=O)[C@H](C)NC(=O)CN(C)C(=O)[C@H](Cc1ccccc1)NC(=O)[C@H](CC(N)=O)NC(=O)[C@@H](CC(N)=O)NC(=O)[C@H](CO)NC(=O)[C@H](CO)NC(=O)[C@H](Cc1c[nH]cn1)NC(=O)[C@H](Cc1c[nH]cn1)NC(=O)[C@H](CC(C)C)NC(=O)[C@H](Cc1ccccc1)NC(=O)[C@H](CCC(=O)O)NC(=O)[C@H](C)NC(=O)[C@H](CC(C)C)NC(=O)[C@H](CCCNC(=N)N)NC(=O)[C@H](CCC(N)=O)NC(=O)[C@@H](NC(=O)[C@H](C)NC(=O)[C@@H]1CSSC[C@H](NC(=O)[C@H](CCCNC(=N)N)NC(=O)CC[C@H](NC(=O)CCCCCCCCCCCCCCCCCCC(=O)O)C(=O)O)C(=O)N[C@@H](CC(N)=O)C(=O)N[C@@H]([C@@H](C)O)C(=O)N[C@@H](C)C(=O)N[C@@H]([C@@H](C)O)C(=O)N1)[C@@H](C)O [Compound 32, [19CD]-isoGlu-RC()NTATC()ATQRLAEFLHHSS-DAsn-NF-Gly(Me)-A-Ile(Me)-LSSTNVGSNTP-NH2] ({C20 diacid-γGlu}-RCNTATCATQRLAEFLHHSS[dN]NF[Sar]A[NMeI]LSSTNVGSNTP-NH2; disulfide 2-7)
SS (SS indicates solubility ≥ 1mg/ml): Solubility, Acetate buffer pH 4 | Solubility, Acetate buffer pH 5 | Solubility, Histidine buffer pH 6 | Solubility, Histidine buffer pH 7 | Solubility, Phosphate buffer pH 6 | Solubility, Phosphate buffer pH 7 | Solubility, Phosphate buffer pH 7.5

CC[C@H](C)[C@@H](C(=O)N[C@@H](CC(C)C)C(=O)N[C@@H](CO)C(=O)N[C@@H](CO)C(=O)N[C@H](C(=O)N[C@@H](CC(N)=O)C(=O)N[C@H](C(=O)NCC(=O)N[C@@H](CO)C(=O)N[C@@H](CC(N)=O)C(=O)N[C@H](C(=O)N1CCC[C@H]1C(N)=O)[C@@H](C)O)C(C)C)[C@@H](C)O)N(C)C(=O)[C@H](C)NC(=O)CN(C)C(=O)[C@H](Cc1ccccc1)NC(=O)[C@@H](CC(N)=O)NC(=O)[C@H](CC(N)=O)NC(=O)[C@H](CO)NC(=O)[C@H](CO)NC(=O)[C@H](Cc1c[nH]cn1)NC(=O)[C@H](Cc1c[nH]cn1)NC(=O)[C@H](CC(C)C)NC(=O)[C@H](Cc1ccccc1)NC(=O)[C@H](CCC(=O)O)NC(=O)[C@H](C)NC(=O)[C@H](CC(C)C)NC(=O)[C@H](CCCNC(=N)N)NC(=O)[C@H](CCC(N)=O)NC(=O)[C@@H](NC(=O)[C@H](C)NC(=O)[C@@H]1CSSC[C@H](NC(=O)[C@H](CCCNC(=N)N)NC(=O)CC[C@H](NC(=O)CCCCCCCCCCCCCCCCCCC(=O)O)C(=O)O)C(=O)N[C@@H](CC(N)=O)C(=O)N[C@@H]([C@@H](C)O)C(=O)N[C@@H](C)C(=O)N[C@@H]([C@@H](C)O)C(=O)N1)[C@@H](C)O [Compound 33, [19CD]-isoGlu-RC()NTATC()ATQRLAEFLHHSSN-DAsn-F-Gly(Me)-A-Ile(Me)-LSSTNVGSNTP-NH2] ({C20 diacid-γGlu}-RCNTATCATQRLAEFLHHSSN[dN]F[Sar]A[NMeI]LSSTNVGSNTP-NH2; disulfide 2-7)
SS (SS indicates solubility ≥ 1mg/ml): Solubility, Acetate buffer pH 4 | Solubility, Acetate buffer pH 5 | Solubility, Histidine buffer pH 6 | Solubility, Histidine buffer pH 7 | Solubility, Phosphate buffer pH 6 | Solubility, Phosphate buffer pH 7 | Solubility, Phosphate buffer pH 7.5

CCCCCCCCCCCCCCCCCCCC(=O)N[C@@H](CCC(=O)N[C@@H](CCCNC(=N)N)C(=O)N[C@H]1CSSC[C@@H](C(=O)N[C@@H](C)C(=O)N[C@H](C(=O)N[C@@H](CCC(N)=O)C(=O)N[C@@H](CCCNC(=N)N)C(=O)N[C@@H](CC(C)C)C(=O)N[C@@H](C)C(=O)N[C@@H](CCC(=O)O)C(=O)N[C@@H](Cc2ccccc2)C(=O)N[C@@H](CC(C)C)C(=O)N[C@@H](Cc2c[nH]cn2)C(=O)N[C@@H](CCCNC(=N)N)C(=O)N[C@@H](CO)C(=O)N[C@@H](CO)C(=O)N[C@@H](CC(N)=O)C(=O)N[C@@H](CC(N)=O)C(=O)N[C@@H](Cc2ccccc2)C(=O)N(C)CC(=O)N[C@@H](C)C(=O)N(C)[C@H](C(=O)N[C@@H](CC(C)C)C(=O)N[C@@H](CO)C(=O)N[C@@H](CO)C(=O)N[C@H](C(=O)N[C@@H](CC(N)=O)C(=O)N[C@H](C(=O)NCC(=O)N[C@@H](CO)C(=O)N[C@@H](CC(N)=O)C(=O)N[C@H](C(=O)N2CCC[C@H]2C(N)=O)[C@@H](C)O)C(C)C)[C@@H](C)O)[C@@H](C)CC)[C@@H](C)O)NC(=O)[C@H]([C@@H](C)O)NC(=O)[C@H](C)NC(=O)[C@H]([C@@H](C)O)NC(=O)[C@H](CC(N)=O)NC1=O)C(=O)O [Compound 94, [Eicosanoyl]-isoGlu-RC()NTATC()ATQRLAEFLHRSSNNF-Gly(Me)-A-Ile(Me)-LSSTNVGSNTP-NH2] ({Arachidoyl-γGlu}-RCNTATCATQRLAEFLHRSSNNF[Sar]A[NMeI]LSSTNVGSNTP-NH2; disulfide 2-7)
SS (SS indicates solubility ≥ 1mg/ml): Solubility, Acetate buffer pH 4 | Solubility, Acetate buffer pH 5 | Solubility, Histidine buffer pH 6 | Solubility, Histidine buffer pH 7 | Solubility, Phosphate buffer pH 6 | Solubility, Phosphate buffer pH 7 | Solubility, Phosphate buffer pH 7.5
